Measured values published in US20090036424A1, “ASSOCIATION BETWEEN HLA-DRBI*07 ALLELE AND SUSCEPTIBILY TO INCREASED LEVELS OF ALAT FOLLOWING XIMELAGATRAN ADMINISTRATION” (AstraZeneca AB, priority 2005, published 2009).

Tested on: alanine aminotransferase (ALAT)
Assay: ALAT elevation during longer-term ximelagatran treatment in clinical trials
Type: in vivo, human
Source text: Phase III clinical trials have been performed using fixed doses of melagatran and ximelagatran for the prevention of VTE in hip or knee replacement surgery. In addition, clinical trials have been performed using ximelagatran for the treatment and long-term secondary prevention of VTE, and for the prevention of stroke in patients with non-valvular atrial fibrillation. Ximelagatran has also been tested for secondary thrombosis prophylaxis post-myocardial infarction/acute coronary syndrome (ACS).
Alanine aminotransferase (ALAT) is an enzyme mostly expressed in the liver (EC 2.6.1.2). It is also called serum glutamate pyruvate transaminase (SGPT) or alanine transaminase (ALT). This enzyme is released into the plasma by liver cell death, which is a normal event. However, when liver cell death increases, ALAT levels rise above the normal range. The spill-over of this enzyme into blood is routinely measured as a marker of abnormal liver-cell damage. For example, alcoholic or viral hepatitis will increase ALAT levels, as will severe congestive heart failure. An elevated ALAT in the presence of normal levels of plasma alkaline phosphatase helps distinguish liver disease caused by liver-cell damage from diseases caused by problems in biliary ducts.
Elevations of ALAT are normally measured in multiples of the upper limit of normal (ULN), with a reference range of 15-45 U/L in most laboratories. In 1987, in a study of 19,877 healthy Air Force recruits, only 99 (0.5%) had confirmed ALAT elevations (as reviewed in Green & Flamm (2002) Gastroenterology 123:1367-1384).
The increase in ALAT values with ximelagatran usually occurred within the first 6 months of treatment and were mainly asymptomatic. […] Subject to the future regulatory approval of ximelagatran, regular liver function testing (LFT) using an appropriate algorithm may be required if ximelagatran is used for treatment periods exceeding a month. Studies are currently ongoing to try and establish the mechanism of the ALAT elevations, and their hepatic and overall clinical significance.

## CCOC(=O)CN[C@@H](C(=O)N1CC[C@H]1C(=O)NCc1ccc(/C(N)=N\O)cc1)C1CCCCC1 [ximelagatran, EtOOC—CH2—(R)Cgl-Aze-Pab-OH]
longer-term treatment (>35 days), 1.2% in the comparator groups
  patients exhibiting levels of alanine aminotransferase (ALAT) 3-fold or more above the upper limit of normal (≧3×ULN): 7.9%
Regardless of whether treatment was continued or discontinued
  reversibility of ALAT increases: reversible in most patients
usually, from start of treatment, mainly asymptomatic
  time of occurrence of the increase in ALAT values: ≤ 6 months
